Experimental findings from patent US20250025438A1, “Derivative of aspartic acid and use thereof in treatment of metabolic diseases such as hepatic fibrosis and non-alcoholic hepatitis” (SHENZHEN JINGTAI TECHNOLOGY CO., LTD., priority 2021, published 2025) are described below.

The structures appear in SMILES notation. Structures can show the parent of a compound that is named as a salt.

Format in all cases: cell-based
For one experiment, the system named is NS3TP1. The experiment in a line: Regulation of NS3TP1 in semi-activated LX2 cells, qPCR. As to conditions: LX-2 cells, 48 hours, Q-PCR, vs control group. The procedure:
Test compounds were added to the LX-2 cells respectively, and total RNA in the cells was extracted 48 hours later. This experiment was performed strictly in accordance with the instructions of the Total RNA Kit. The steps were as follows (note: this experiment was performed on ice throughout the entire process, and special RNase-free tips were used throughout the entire process): • 1) The 12-well cell culture plate was taken out from the incubator, the cell culture medium was discarded, the cells were washed twice with 1 mL of 1×PBS, and a negative pressure suction device was used to fully remove PBS; • 2) 350 μL of TRK Lysis Buffer mixture/well was prepared as needed (mixture preparation method: 1 mL of TRKLysis Buffer+20 μL of β-mercaptoethanol), vortexed and mixed well. 350 μL was added to each well of the 12-well cell culture plate, and allowed to stand at room temperature for 5 minutes to fully lyse the cells; • 3) 70% ethanol/well was prepared as needed, vortexed and mixed well. 350 μL was added to each well of the 12-well cell culture plate, mixed well by shaking, and transferred to the spin column (spin column+collection tube were assembled); • 4) Centrifugation was performed at 4° C., 12000 g for 60 sec. The waste liquid was discarded after centrifugation, while the spin column was kept; • 5) 500 μL of RNA Wash Buffer I was added, centrifuged at 4° C., 12000 g for 60 sec, the waste liquid was discarded after centrifugation, and the collection column was kept; • 6) 500 μL of RNA Wash Buffer II (confirmed that ethanol had been added) was added, centrifuged at 4° C., 12000 g for 60 sec, the waste liquid was discarded after centrifugation, and the collection column was kept; • 7) step 6) was repeated once again, centrifugation was performed at 4° C., 12000 g for 90 sec, the waste liquid was discarded after centrifugation, and the collection column was kept; • 8) Centrifugation was performed at 4° C., 12000 g for 120 sec to ensure that the spin column was fully dried; • 9) The dried spin column was inserted into a new 1.5 mL EP tube, and 30 μL of DEPC water was added to the membrane in the center of the spin column. It should be careful not to touch the EP tube cover in this step. It was allowed to stand at room temperature for 5 minutes to ensure that the RNA was fully dissolved in DEPC water. Centrifugation was performed at 4° C., 12000 g for 60 sec, and the EP tube was kept; • 10) NanoDrop ultra-micro-volume spectrophotometer was used to detect RNA concentration;
5.2 Reverse transcription of RNA into cDNA: According to the instructions of PrimeScript™ RT reagent Kit (Perfect Real Time), the specific experimental steps were as follows:
5.3 Q-PCR detection of target gene expression: According to the instructions of Power SYBR® Green PCR Master Mix, the specific operations were as follows:
After the reaction was completed, the amplification curve and dissolution curve of Q-PCR were confirmed, and the relative quantification method ([…]) was used to perform data analysis on the experimental results.
LX2 cells were passaged and plated normally. […] After 48 hours, the cells were collected, total RNA was extracted, and the expression of NS3TP1 gene was detected using Q-PCR method.
On the technique in general: Quantitative PCR measures a nucleic acid by following its amplification.

In the next experiment the test system is collagen I. As to the kind of experiment: Activated LX2 cells (TGFβ1), Western blot: Collagen I. As to conditions: LX2 cells stimulated with TGFβ1 (5 ng/mL), 24 hours, FIG. 4.
In experiment [1] the test system is α-SMA. The experiment in a line: Activated LX2 cells (TGFβ1), Western blot: α-SMA. As to conditions: LX2 cells stimulated with TGFβ1 (5 ng/mL), 24 hours, FIG. 4. (In general: A western blot detects proteins with antibodies after separation by electrophoresis.)
For the next experiment, the system named is COL1A1. The experiment in a line: In vitro efficacy in semi-activated LX2 cells, qPCR: COL1A1. As to conditions: Homo sapiens, 48 hours, Q-PCR, read-out: COL1A1 mRNA inhibition rate.
In a further experiment the test system is COL3A1. As to the kind of experiment: In vitro efficacy in semi-activated LX2 cells, qPCR: COL3A1. Conditions: Homo sapiens, 48 hours, Q-PCR, read-out: COL3A1 mRNA inhibition rate.
The subject of experiment [2] is α-SMA. The experiment in a line: In vitro efficacy in semi-activated LX2 cells, qPCR: α-SMA. As to conditions: test concentration 25 μM, 48 hours, Q-PCR, read-out: α-SMA mRNA inhibition rate. In short, it runs like this:
(§1)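 LX-2 cells, 50 µM compound, 48 h; RNA extraction → RT → SYBR Green qPCR; fold change by relative quantification.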

A further experiment concerns Smad3. As to the kind of experiment: In vitro efficacy in semi-activated LX2 cells, qPCR: Smad3. As to conditions: Homo sapiens, 48 hours, Q-PCR, read-out: Smad3 mRNA inhibition rate. In short, it runs like this:
as §1

The next experiment has as its system IL-1β. The experiment in a line: In vitro efficacy in semi-activated LX2 cells, qPCR: IL-1β. As to conditions: Homo sapiens, 48 hours, Q-PCR, read-out: IL-1β mRNA inhibition rate.
In another experiment the test system is COL1A2. As to the kind of experiment: In vitro efficacy in semi-activated LX2 cells, qPCR: COL1A2. As to conditions: Homo sapiens, 48 hours, Q-PCR, read-out: COL1A2 mRNA inhibition rate.
For a further experiment, the system named is TNF-α. As to the kind of experiment: In vitro efficacy in semi-activated LX2 cells, qPCR: TNF-α. Conditions: Homo sapiens, 48 hours, Q-PCR, read-out: TNF-α mRNA inhibition rate.
[3] abbreviates: LX-2, test concentration 12.5 μM.

Regarding `COC(=O)C[C@H](N)C(=O)OCCOC(=O)C[C@H](N)C(=O)OC` [Compound 78a, 4-(2-(S)-2-amino-4-methoxy-4-oxobutyryl)ethyl)1-methyl L-aspartic acid ester hydrochloride], in the experiment on NS3TP1 (test concentration 12.5 μM), the “Up-regulation of NS3TP1” value is given as “C (C represented that the up-regulation was 1~20%)”. Moreover, the “expression of Collagen I in the cells” value with collagen I is listed as “significantly decreased”. Also, the “expression of α-SMA in the cells” value with α-SMA [1] is on record as “significantly decreased”.
For the compound `C[S+]([O-])C[C@H](N)C(=O)O` (stereo partly shown) [Compound 45], the inhibition (in general, the relative decrease from the control value, in per cent) at 25 µM in the experiment with COL1A1 (LX-2, test concentration 25 μM) was in the range of 1 to 10%; in the experiment with COL3A1 (LX-2, test concentration 25 μM), 1 to 10%; in the experiment with α-SMA [2], 1 to 10%; with Smad3 (LX-2, test concentration 25 μM), 1 to 10%; in the experiment on IL-1β (LX-2, test concentration 25 μM) it was 1 to 10%; in the experiment on COL1A2 (LX-2, test concentration 25 μM), 1 to 10%. Further, the inhibition at 25 µM with TNF-α (LX-2, test concentration 25 μM) was in the range of 1 to 10%.
`COC(=O)C[C@H](N)C(=O)OCCOC(=O)[C@@H](N)CC(=O)OC` [Compound 77a, O′1,O1-(ethan-1,2-diyl)4-dimethyl (2S,2'S)-bis (2-aminosuccinate) hydrochloride]: the “Up-regulation of NS3TP1” value in the experiment with NS3TP1 (200 µM compound) is on record as “C (C represented that the up-regulation was 1~20%)”. Further, in the experiment with collagen I, the “expression of Collagen I in the cells” value is recorded as “significantly decreased”. In addition, the “expression of α-SMA in the cells” value with α-SMA [1] is “significantly decreased”.
For `CN[C@@H](CC(=O)O)C(=O)O` [Compound 3], the inhibition at 12.5 µM in the experiment with COL1A1 (setting [3]) is 25 to 50%; in the experiment on COL3A1 (setting [3]), 1 to 10%; in the experiment on Smad3 (setting [3]), 1 to 10%; in the experiment on IL-1β (setting [3]), 1 to 10%; in the experiment on COL1A2 (setting [3]), 1 to 10%; with TNF-α (setting [3]), 1 to 10%.
